Values of other authors in patent publication US20200275650A1, “NOVEL POLYMER COATED CHLO[…]” (priority 2017, published 2020).

Conditions: technical chlorothalonil; well documented

N#Cc1c(Cl)c(Cl)c(Cl)c(C#N)c1Cl [technical chlorothalonil, chlorothalonil]
Median Lethal Concentration (acute inhalation toxicity): 0.1 mg/L
